Data on 22 molecules can be found in patent US20230022724A1, “NOVEL IMIDAZOPYRAZINE DERIVATIVES” (Hoffmann-La Roche Inc., priority 2018, published 2023).

Each structure is given as a SMILES string. Structures can show the parent of a compound that is named as a salt.

For the first experiment, the system named is Acinetobacter baumannii ATCC17978. Kind of experiment: Antimicrobial susceptibility testing: 90% growth inhibitory concentration (IC90) determination. The experiment is classed as cell-based. Particulars: Acinetobacter baumannii, ATCC17978, 16 h, 90% growth inhibitory concentration, Acinetobacter baumannii ATCC17978, Iso-Sensitest broth, OD 600 nm over 16 h; read-out: ATCC17978 IC90. The procedure: The in vitro antimicrobial activity of the compounds was determined according to the following procedure:
The assay used a 10-points Iso-Sensitest broth medium to measure quantitatively the in vitro activity of the compounds against Acinetobacter baumannii ATCC17978 and Acinetobacter baumannii ATCC17961.
Stock compounds in DMSO were serially twofold diluted (e.g. range from 50 to 0.097 μM final concentration) in 384 wells microtiter plates and inoculated with 49 μl the bacterial suspension in Iso-Sensitest medium to have a final cell concentration of ˜5×10^(5) CFU/ml in a final volume/well of 50 ul/well. Microtiter plates were incubated at 35±2° C.
Bacterial cell growth was determined with the measurement of optical density at λ=600 nm each 20 minutes over a time course of 16 h. Growth inhibition was calculated during the logarithmic growth of the bacterial cells with determination of the concentration inhibiting 50% (IC50) and 90% (IC90) of the growth.
Table 1 provides the 90% growth inhibitory concentrations (IC90) in micromoles per liter of the compounds of present invention obtained against the strain Acinetobacter baumannii ATCC17978 and Acinetobacter baumannii ATCC17961.
For `N#CCOc1ccc(-c2cnc3c(Nc4ccc(C(=O)N5CCC(C(=O)N6CCNCC6CO)CC5)c(Cl)c4)nccn23)c(Cl)c1F` (stereo not shown) [Example 31, 2-[3-chloro-4-[8-[3-chloro-4-[4-[2-(hydroxymethyl)piperazine-1-carbonyl]piperidine-1-carbonyl]anilino]imidazo[1,2-a]pyrazin-3-yl]-2-fluoro-phenoxy]acetonitrile trifluoroacetate], the IC90 – broadly, the concentration needed for an effect of 90% – was 0.32 µM.

On to `COc1ccc(-c2cnc3c(Nc4ccc(C(=O)N5CCC(C(=O)N[C@@H]6CCNC6)CC5)c(Cl)c4)nccn23)c(F)c1F` [Example 39, (R)-1-(2-chloro-4-((3-(2,3-difluoro-4-methoxyphe-nyl)imida-zo[1,2-a]pyrazin-8-yl)amino)benzoyl)-N-(pyrrolidin-3-yl)piperidine-4-carboxamide hydrochloride], for which the IC90 was 0.2 µM.

In the case of `NCC1CCN(C(=O)c2ccc(Nc3nccn4c(-c5ccc(OC(F)F)cc5)cnc34)cc2I)CC1` [Example 51, [4-(aminomethyl)piperidin-1-yl]-[4-[[3-[4-(difluoromethoxy)phenyl]imidazo[1,2-a]pyrazin-8-yl]amino]-2-iodophenyl]methanone; hydrochloride], the 90% effect concentration (IC90) is 0.23 µM.

On to `N#CCOc1ccc(-c2cnc3c(Nc4ccc(C(=O)N5CCN(c6ncccn6)CC5)c(Cl)c4)nccn23)c(F)c1F` [Example 22, 2-[4-[8-[3-chloro-4-(4-pyrimidin-2-ylpiperazine-1-carbonyl)anilino]imidazo[1,2-a]pyrazin-3-yl]-2,3-difluoro-phenoxy]acetonitrile], for which the 90% effect concentration (IC90) stood at 0.69 µM.

As for `COc1ccc(-c2cnc3c(Nc4ccc(C(=O)N5CCC(O)(CCN(C)C)CC5)c(Cl)c4)nccn23)cc1F` [Example 28, (2-chloro-4-((3-(3-fluoro-4-methoxyphenyl)imidazo[1,2-a]pyrazin-8-yl)amino)phenyl)(4-(2-(dimethylamino)ethyl)-4-hydroxypiperidin-1-yl)methanone], the concentration for an effect of 90% (IC90) was 0.14 µM.

Take `COc1ccc(-c2cnc3c(Nc4ccc(C(=O)N5CCN(Cc6cnc[nH]6)CC5)c(Cl)c4)nccn23)cc1F` [Example 72, [2-chloro-4-[[3-(3-fluoro-4-methoxyphenyl)imidazo[1,2-a]pyrazin-8-yl]amino]phenyl]-[4-(1H-imidazol-5-ylmethyl)piperazin-1-yl]methanone]: the IC90 was found to be 0.51 µM.

Take `COc1ccc(-c2cnc3c(Nc4ccc(C(=O)N5CCN(CCN(C)C)CC5)c(Br)c4)nccn23)cc1F` [Example 81, [2-bromo-4-[[3-(3-fluoro-4-methoxyphenyl)imidazo[1,2-a]pyrazin-8-yl]amino]phenyl]-[4-[2-(dimethylamino)ethyl]piperazin-1-yl]methanone;formic acid]: the concentration for an effect of 90% (IC90) worked out at 0.29 µM.

On to `COc1ccc(-c2cnc3c(Nc4ccc(C(=O)N5CCN(CCN6CCC6)CC5)c(Cl)c4)nccn23)cc1F` [Example 57, [4-[2-(azetidin-1-yl)ethyl]piperazin-1-yl]-[2-chloro-4-[[3-(3-fluoro-4-methoxyphenyl)imidazo[1,2-a]pyrazin-8-yl]amino]phenyl]methanone], for which the IC90 amounted to 0.33 µM.

For `C#CCOc1ccc(-c2cnc3c(Nc4ccc(C(=O)N5CCC(CN)CC5)c(Cl)c4)nccn23)c(F)c1F` [Example 75, [4-(aminomethyl)piperidin-1-yl]-[2-chloro-4-[[3-(2,3-difluoro-4-prop-2-ynoxyphenyl)imidazo[1,2-a]pyrazin-8-yl]amino]phenyl]methanone], the 90% effect concentration (IC90) was 0.085 µM.

For the molecule `N#CCOc1ccc(-c2cnc3c(Nc4ccc(C(=O)N5CCN(CCN6CC(c7nnn[nH]7)C6)CC5)c(Cl)c4)nccn23)c(F)c1F` [Example 105, 2-(4-(8-((4-(4-(2-(3-(2H-tetrazol-5-yl)azetidin-1-yl)ethyl)piperazine-1-carbonyl)-3-chlorophenyl)amino)imidazo [1,2-a]pyrazin-3-yl)-2,3-difluorophenoxy)acetonitrile trifluoroacetate], the IC90 was 0.36 µM.

As to `CNCC(=O)N1CCN(C(=O)c2ccc(Nc3nccn4c(-c5ccc(OC)c(F)c5)cnc34)cc2Cl)CC1` [Example 18, 1-(4-(2-chloro-4-((3-(3-fluoro-4-methoxyphenyl)imidazo[1,2-a]pyrazin-8-yl)amino)benzoyl)piperazin-1-yl)-2-(methylamino)ethan-1-one hydrochloride], the IC90 was determined as 0.18 µM.

For `COc1ccc(-c2cnc3c(Nc4ccc(C(=O)N5CCC(CN)CC5)c(Br)c4)nccn23)cc1F` [Example 80, [4-(aminomethyl)piperidin-1-yl]-[2-bromo-4-[[3-(3-fluoro-4-methoxyphenyl)imidazo[1,2-a]pyrazin-8-yl]amino]phenyl]methanone], the IC90 is 0.087 µM.

Take `CNCCN1CCN(C(=O)c2ccc(Nc3nccn4c(-c5ccc(OC)c(F)c5)cnc34)cc2Cl)CC1` [Example 20, (2-chloro-4-((3-(3-fluoro-4-methoxyphenyl)imidazo[1,2-a]pyrazin-8-yl)amino)phenyl)(4-(2-(methylamino)ethyl)piperazin-1-yl)methanone]: the IC90 came out at 0.13 µM.

The same experiment, now with this note: Acinetobacter baumannii, ATCC17978, 16 h, read-out: ATCC17978 IC90.
Take `N#CCOc1ccc(-c2cnc3c(Nc4ccc(C(=O)N5CCC(C(=O)N6CCN[C@H](CO)C6)CC5)c(Cl)c4)nccn23)c(Cl)c1F` [Example 88, 2-[3-chloro-4-[8-[3-chloro-4-[4-[(3S)-3-(hydroxymethyl)piperazine-1-carbonyl]piperidine-1-carbonyl]anilino]imidazo[1,2-a]pyrazin-3-yl]-2-fluorophenoxy]acetonitrile; formic acid]: the IC90 was found to be 0.09 µM.

For the molecule `CS(=O)(=O)C1CN(CCN2CCN(C(=O)c3ccc(Nc4nccn5c(-c6ccc(OCC#N)c(F)c6F)cnc45)cc3Cl)CC2)C1` [Example 98, 2-[4-[8-[3-chloro-4-[4-[2-(3-methylsulfonylazetidin-1-yl)ethyl]piperazine-1-carbonyl]anilino]imidazo[1,2-a]pyrazin-3-yl]-2,3-difluorophenoxy]acetonitrile; 2,2,2-trifluoroacetic acid], the 90% effect concentration (IC90) stood at 0.14 µM.

Consider `CN(C)CC1CN(CCN2CCN(C(=O)c3ccc(Nc4nccn5c(-c6ccc(OCC#N)c(F)c6F)cnc45)cc3Cl)CC2)C1` [Example 99, 2-[4-[8-[3-chloro-4-[4-[2-[3-[(dimethylamino)methyl]azetidin-1-yl]ethyl]piperazine-1-carbonyl]anilino]imidazo[1,2-a]pyrazin-3-yl]-2,3-difluorophenoxy]acetonitrile; 2,2,2-trifluoroacetic acid], for which the IC90 turned out to be 0.17 µM.

With `Cc1cc(Nc2nccn3c(-c4ccc(OC(F)F)cc4)cnc23)ccc1C(=O)N1CCN(C(=O)N2CCN[C@H](C(=O)O)C2)CC1` [Example 82, (2S)-4-[4-[4-[[3-[4-(difluoromethoxy)phenyl]imidazo [1,2-a]pyrazin-8-yl]amino]-2-methylbenzoyl]piperazine-1-carbonyl]piperazine-2-carboxylic acid;hydrochloride], the IC90 is 1 µM.

Regarding `COC1CN(CCN2CCN(C(=O)c3ccc(Nc4nccn5c(-c6ccc(OCC#N)c(F)c6F)cnc45)cc3Cl)CC2)C1` [Example 97, 2-[4-[8-[3-chloro-4-[4-[2-(3-methoxyazetidin-1-yl)ethyl]piperazine-1-carbonyl]anilino]imidazo[1,2-a]pyrazin-3-yl]-2,3-difluorophenoxy]acetonitrile; 2,2,2-trifluoroacetic acid], the concentration for an effect of 90% (IC90) stood at 0.1 µM.

Turning to `N#CCOc1ccc(-c2cnc3c(Nc4ccc(C(=O)N5CCN(CCN6CCC(C(=O)O)C6)CC5)c(Cl)c4)nccn23)c(F)c1F` (stereo not shown) [Example 47, 1-[2-[4-[2-chloro-4-[[3-[4-(cyanomethoxy)-2,3-difluoro-phenyl]imidazo[1,2-a]pyrazin-8-yl]amino]benzoyl]piperazin-1-yl]ethyl]pyrrolidine-3-carboxylic Acid Trifluoroacetate], the IC90 turned out to be 0.43 µM.

Turning to `N#CCOc1ccc(-c2cnc3c(Nc4ccc(C(=O)N5CCC(C(=O)N6CCN[C@@H](CO)C6)CC5)c(Cl)c4)nccn23)c(F)c1F` [Example 85, 2-[4-[8-[3-chloro-4-[4-[(3R)-3-(hydroxymethyl)piperazine-1-carbonyl]piperidine-1-carbonyl]anilino]imidazo[1,2-a]pyrazin-3-yl]-2,3-difluorophenoxy]acetonitrile; formic acid], the 90% effect concentration (IC90) is 0.046 µM.

With `N#CCOc1ccc(-c2cnc3c(Nc4ccc(C(=O)N5CCN(CCN6CCC(O)C6)CC5)c(Cl)c4)nccn23)c(F)c1F` (stereo not shown) [Example 95, 2-[4-[8-[3-chloro-4-[4-[2-(3-hydroxypyrrolidin-1-yl)ethyl]piperazine-1-carbonyl]anilino]imidazo[1,2-a]pyrazin-3-yl]-2,3-difluorophenoxy]acetonitrile; 2,2,2-trifluoroacetic acid], the IC90 amounted to 0.056 µM.

On to `N#CCOc1ccc(-c2cnc3c(Nc4ccc(C(=O)N5CCC(C(=O)N6CCN[C@@H](CO)C6)CC5)c(Cl)c4)nccn23)c(Cl)c1F` [Example 86, 2-[3-chloro-4-[8-[3-chloro-4-[4-[(3R)-3-(hydroxymethyl)piperazine-1-carbonyl]piperidine-1-carbonyl]anilino]imidazo[1,2-a]pyrazin-3-yl]-2-fluorophenoxy]acetonitrile; formic acid], for which the IC90 came out at 0.049 µM.
